Test results published in PubChem BioAssay AID1417 (Emory University Molecular Libraries Screening Center, 2008).

What follows are compounds tested against Induced myeloid leukemia cell differentiation protein Mcl-1 (Homo sapiens) (UniProt Q07820) (assay: Mcl-1 Noxa peptide disruption concentration-response – biochemical, TR-FRET, dose response (AID 1417)). Settings: Mcl-1/Noxa peptide interaction, cell-free TR-FRET (terbium/rhodamine), 2 h; measured here: absolute IC50.
Induced myeloid leukemia cell differentiation protein Mcl-1 (Homo sapiens), sequence (Q07820 whole entry, looked up): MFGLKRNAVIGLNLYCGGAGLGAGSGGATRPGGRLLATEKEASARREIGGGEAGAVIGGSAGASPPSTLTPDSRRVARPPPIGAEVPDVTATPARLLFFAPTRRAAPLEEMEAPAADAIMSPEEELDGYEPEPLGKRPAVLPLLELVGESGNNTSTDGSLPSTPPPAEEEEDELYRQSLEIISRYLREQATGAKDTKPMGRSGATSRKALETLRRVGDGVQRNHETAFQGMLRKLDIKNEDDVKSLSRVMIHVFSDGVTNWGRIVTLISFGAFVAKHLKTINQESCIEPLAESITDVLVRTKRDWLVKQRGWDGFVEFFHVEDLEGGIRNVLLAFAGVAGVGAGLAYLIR
With `O=C(CSc1ccsc1[N+](=O)[O-])Nc1cc(F)ccc1F` the IC50 was > 54000 nM. `Cc1ccc(-c2c3c([nH]c(=S)c2C#N)CCCC3)o1` gave an IC50 of 1170 nM. For `O=C(NCCc1ccccc1)c1ccc2nc(-c3ccco3)c(-c3ccco3)nc2c1`, the IC50 was 2000 nM. `O=c1/c(=C\c2cc([N+](=O)[O-])cc([N+](=O)[O-])c2O)sc2nc3ccccc3n12` was tested, and the IC50 was < 400 nM. With `CNc1ccc(Br)cc(C(=O)/C=C/c2ccc(Cl)cc2Cl)c1=O` the IC50 was 1410 nM. For `Cc1ccc(-n2nc(C)cc2NC(=O)COc2cc(C)cc3oc(=O)c4c(c23)CCC4)cc1`, the IC50 was > 54000 nM. `CC(C)c1ccc(S(=O)(=O)/N=C2/C=C(Sc3ncn[nH]3)C(=O)c3ccccc32)cc1` was tested, and the IC50 was < 400 nM. Compound `CCNc1ccc(Br)cc(C(=O)/C=C/c2ccc3c(c2)OCO3)c1=O` has an IC50 of 499 nM. In the case of `C=CCc1cccc2cc(C(=O)Nc3ccc(S(=O)(=O)Nc4nnc(CC)s4)cc3)c(=O)oc12`, the IC50 is reported as 1540 nM. `O=C(O)CCn1cc(C=C2C(=O)NC(=S)NC2=O)c(-c2cccc(Cl)c2)n1` showed an IC50 of 1810 nM. `O=C(O)CCn1cc(C=C2C(=O)NC(=S)NC2=O)c(-c2cccc(Br)c2)n1` gave an IC50 of 2180 nM. `NC(=O)c1c(Nc2nc3c(F)cccc3s2)sc2c1CCCC2` was tested, and the IC50 was < 400 nM. For `O=C(CN1C(=O)/C(=C2\SC(=S)N(C3CCS(=O)(=O)C3)C2=O)c2ccccc21)Nc1ccccc1` (stereo not drawn), the IC50 was < 400 nM. For `O=C(CSc1nnc(COc2ccccc2Cl)o1)NC(=O)NCc1ccco1`, the IC50 was 8600 nM. In the case of `NC1=NC(=O)/C(=C/c2cn(CCC(=O)O)nc2-c2ccc(Cl)cc2)S1`, the IC50 is reported as 5910 nM. In the case of `COc1cc(C(=O)Nc2ccc3c(c2)C(=O)c2ccccc2C3=O)cc(OC)c1OC`, the IC50 is reported as 3970 nM. `COc1ccc(Nc2cc(C)c3c(O)cccc3n2)cc1` was tested, and the IC50 was 7120 nM. For `O=C1/C(=C\c2ccc(O)cc2)SC(=S)N1/N=C/c1ccc(O)cc1`, the IC50 was 2990 nM. With `CC(C)c1ccc(Nc2nnc(SCC(=O)c3nnc(-c4ccccc4)o3)s2)cc1` the IC50 was 1920 nM. `O=C(COC(=O)c1ccc(NS(=O)(=O)c2cccs2)cc1)NCc1ccco1` showed an IC50 of 2410 nM. In the case of `Cc1cc2nc(-c3ccc(SCc4ccc(C(=O)O)cc4)nc3)[nH]c2cc1C`, the IC50 is reported as < 400 nM. Work on `Cc1cccn2c(=O)c3cc(C(=O)NCc4ccco4)c(=N)n(CCc4ccccc4)c3nc12` yielded an IC50 of 3150 nM. Work on `Cc1ccc(OCC(=O)Nc2ccc(N3CCCC3)cc2)cc1C` yielded an IC50 of 7070 nM. For `O=C(O)c1ccc(-n2cccc2/C=C2/NC(=O)N(c3ccccc3)C2=O)cc1`, the IC50 was 3330 nM. `CCN(CC)c1ccc(NC(=O)c2ccc3c(c2)c(C)c(C)n3C)cc1` was tested, and the IC50 was > 54000 nM. `Cc1ccc2c(c1)C1CN(C)CCC1N2C(=O)Nc1cccc(Cl)c1` (stereo not drawn) was tested, and the IC50 was > 54000 nM. `O=C(O)COc1ccccc1C(Nc1ccccn1)c1cc(Cl)c2cccnc2c1O` (stereo not drawn) was tested, and the IC50 was < 400 nM. In the case of `COc1cc(/C=C2\SC(=S)N(CC(=O)Nc3ccc(O)cc3)C2=O)cc(OC)c1OC`, the IC50 is reported as < 400 nM. For `CN(C)c1ccc(NC(=O)c2cccc(C(=O)Nc3ccc(N(C)C)cc3)n2)cc1`, the IC50 was 4030 nM. `O=C(Cn1c(=O)n(-c2ccccc2)c(=O)c2sccc21)N1CCCC1` was tested, and the IC50 was > 54000 nM. `COCCCNC(=O)/C(C#N)=C/c1ccc(OCC(=O)O)c(OC)c1` showed an IC50 of 3460 nM. With `NC(=O)c1nn(CC(=O)Nc2ccc3c(c2)OCO3)cc1[N+](=O)[O-]` the IC50 was > 54000 nM. In the case of `CN(C)c1ccc(/C=N/NC(=O)c2cccc(C(=O)N/N=C/c3ccc(N(C)C)cc3)n2)cc1`, the IC50 is reported as < 400 nM. `Cc1ccc(N=C2NC(=O)/C(=C/C=C/c3ccco3)S2)cc1` showed an IC50 of 7160 nM. In the case of `Cc1cccc(-c2nc(Nc3ccc(N4CCOCC4)cc3)c3ccccc3n2)c1`, the IC50 is reported as < 400 nM. In the case of `O=C(CSc1cccc[n+]1[O-])Nc1cc2c(cc1Cl)C(=O)c1ccccc1C2=O`, the IC50 is reported as 3740 nM. With `Cc1c(NS(=O)(=O)c2cc(NC(=O)CCN3CCCC(C)C3)ccc2Cl)c(=O)n(-c2ccccc2)n1C` (stereo not drawn) the IC50 was > 54000 nM. With `CCC1=NNc2cccc3c(OC)ccc1c23` the IC50 was > 54000 nM. In the case of `COc1ccc(N2Cc3cccc(C(=O)O)c3C2=O)cc1`, the IC50 is reported as 4790 nM. Work on `O=C(OCC(=O)N1CCN(C(=O)c2ccco2)CC1)c1cc(-c2ccco2)nc2ccccc12` yielded an IC50 of 1930 nM. In the case of `COc1ccc2nc(Nc3sc4c(c3C(N)=O)CCCC4)sc2c1`, the IC50 is reported as < 400 nM. For `COc1ccccc1NC(=O)C(=O)N/N=C/c1ccc([N+](=O)[O-])s1`, the IC50 was 6170 nM. In the case of `N=C1S/C(=C\c2ccc(-c3cccc(Cl)c3)o2)C(=O)N1c1nccs1`, the IC50 is reported as 861 nM. With `O=C(O)c1ccc(-n2cccc2/C=C2/NC(=O)N(c3cccc(Cl)c3)C2=O)cc1` the IC50 was < 400 nM. In the case of `CCNc1ccc(Br)cc(C(=O)/C=C/c2ccc(Cl)cc2Cl)c1=O`, the IC50 is reported as 4190 nM. In the case of `Cc1ccc(NC(=O)c2cc(N3C(=O)C=CC3=O)ccc2Cl)cc1C`, the IC50 is reported as < 400 nM. With `O=C(Nc1cccc(S(=O)(=O)N2CCOCC2)c1)c1c2c(nc3ccccc13)CCC2` the IC50 was 3080 nM. `COc1ccc(Cc2nnc(NC(=O)Cc3cccs3)s2)cc1OC` gave an IC50 of 1050 nM. For `CC1=C(C(=O)OCC(C)C)C(c2ccsc2)NC(=O)N1` (stereo not drawn), the IC50 was > 54000 nM. `O=C(CCN1CCN(c2ccccc2)CC1)N/N=C/c1ccc(O)c(O)c1O` was tested, and the IC50 was < 400 nM. `COc1ccc(N2CCC(CNS(=O)(=O)c3cccc(C(F)(F)F)c3)C2)cc1` (stereo not drawn) was tested, and the IC50 was < 400 nM. `O=[N+]([O-])c1cc(/C=N/Nc2nc3ccccc3[nH]2)c(O)cc1O` was tested, and the IC50 was 13300 nM. `Cc1ccc(-c2cc(C(=O)OCC(=O)N(C)C3CCS(=O)(=O)C3)c3ccccc3n2)o1` (stereo not drawn) gave an IC50 of 2980 nM.
